Results: paper PMC10367113 (Nature chemical biology, 2022)

Target: T1, Bl_Endo85 (Bifidobacterium longum, UniProt Q8G4P3)
T1 sequence (Q8G4P3 38-937): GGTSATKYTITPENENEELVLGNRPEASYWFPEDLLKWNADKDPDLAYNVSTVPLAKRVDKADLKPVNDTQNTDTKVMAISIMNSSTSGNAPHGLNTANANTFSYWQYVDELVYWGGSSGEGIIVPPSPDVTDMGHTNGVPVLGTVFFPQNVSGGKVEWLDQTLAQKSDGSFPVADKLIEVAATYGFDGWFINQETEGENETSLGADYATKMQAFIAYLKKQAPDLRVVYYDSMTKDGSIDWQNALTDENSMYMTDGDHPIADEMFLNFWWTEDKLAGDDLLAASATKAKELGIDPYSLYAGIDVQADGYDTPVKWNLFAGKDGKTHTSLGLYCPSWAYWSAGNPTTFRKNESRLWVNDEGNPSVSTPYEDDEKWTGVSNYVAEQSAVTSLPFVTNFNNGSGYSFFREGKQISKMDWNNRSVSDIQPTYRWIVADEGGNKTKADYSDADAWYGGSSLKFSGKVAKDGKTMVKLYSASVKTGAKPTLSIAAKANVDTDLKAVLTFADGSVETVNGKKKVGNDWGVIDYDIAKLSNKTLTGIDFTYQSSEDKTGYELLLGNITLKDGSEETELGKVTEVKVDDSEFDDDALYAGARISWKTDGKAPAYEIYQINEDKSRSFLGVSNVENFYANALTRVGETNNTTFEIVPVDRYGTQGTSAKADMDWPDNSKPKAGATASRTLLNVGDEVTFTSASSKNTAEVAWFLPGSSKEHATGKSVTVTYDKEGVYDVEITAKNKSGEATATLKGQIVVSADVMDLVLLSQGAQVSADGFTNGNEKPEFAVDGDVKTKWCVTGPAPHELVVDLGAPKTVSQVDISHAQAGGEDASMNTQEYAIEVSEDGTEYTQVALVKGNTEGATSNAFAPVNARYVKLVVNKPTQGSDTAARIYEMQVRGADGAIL
Test: LC-MS
Format: biochemical
Conditions: 150 mM ammonium acetate pH 5.0, 37 °C, 16 h

SMILES	LC-MS (product GlcMan9GlcNAc)	LC-MS (product Man9GlcNAc)
CC(=O)N[C@H]1[C@H](O[C@H]2[C@H](O)[C@@H](NC(C)=O)C(O)O[C@@H]2CO)O[C@H](CO)[C@@H](O[C@@H]2O[C@H](CO[C@H]3O[C@H](CO[C@H]4O[C@H](CO)[C@@H](O)[C@H](O)[C@@H]4O[C@H]4O[C@H](CO)[C@@H](O)[C@H](O)[C@@H]4O)[C@@H](O)[C@H](O[C@H]4O[C@H](CO)[C@@H](O)[C@H](O)[C@@H]4O[C@H]4O[C@H](CO)[C@@H](O)[C@H](O)[C@@H]4O)[C@@H]3O)[C@@H](O)[C@H](O[C@H]3O[C@H](CO)[C@@H](O)[C@H](O)[C@@H]3O[C@H]3O[C@H](CO)[C@@H](O)[C@H](O)[C@@H]3O[C@H]3O[C@H](CO)[C@@H](O)[C@H](O[C@H]4O[C@H](CO)[C@@H](O)[C@H](O)[C@H]4O)[C@@H]3O)[C@@H]2O)[C@@H]1O (some centres unmarked) [GlcMan9GlcNAc2]	Reaction of Bl_Endo85 against GlcMan9GlcNAc2, generating GlcMan9GlcNAc	–
CC(=O)N[C@@H]1[C@@H](O)[C@H](O[C@@H]2O[C@H](CO)[C@@H](O[C@@H]3O[C@H](CO[C@H]4O[C@H](CO[C@H]5O[C@H](CO)[C@@H](O)[C@H](O)[C@@H]5O[C@H]5O[C@H](CO)[C@@H](O)[C@H](O)[C@@H]5O)[C@@H](O)[C@H](O[C@H]5O[C@H](CO)[C@@H](O)[C@H](O)[C@@H]5O[C@H]5O[C@H](CO)[C@@H](O)[C@H](O)[C@@H]5O)[C@@H]4O)[C@@H](O)[C@H](O[C@H]4O[C@H](CO)[C@@H](O)[C@H](O)[C@@H]4O[C@H]4O[C@H](CO)[C@@H](O)[C@H](O)[C@@H]4O[C@H]4O[C@H](CO)[C@@H](O)[C@H](O)[C@@H]4O)[C@@H]3O)[C@H](O)[C@H]2NC(C)=O)[C@@H](CO)O[C@H]1NC(=O)C[C@H](N)C(=O)O [Man9GlcNAc2-Asn]	–	Reactions of Bl_Endo85 against Man5GlcNAc2-Asn (e) and Man9GlcNAc2-Asn (g)
